Assay results taken from US10869879B2, “Combinations to treat cancer” (EVOL SCIENCE LLC, priority 2017, dated 2020).
pIC50: −log10 of the molar value.

Experiments:
[1] = system: BxPC3M1, BxPC3, Panc1, and MiaPaca2; assay: Cell proliferation assay; format: cell-based; details: vemurafenib 10 μM, all 4 cell lines (WT BRAF)
Protocol: FIG. 9A, FIG. 9B, FIG. 9C, FIG. 9D, FIG. 9E, FIG. 9F, FIG. 9G and FIG. 9H illustrate vemurafenib induced cell proliferation and serine synthesis in pancreatic cancer cell lines. FIG. 9A: Cell proliferation assay of BxPC3 cells treated with vemurafenib (10 μM). 100000 cells plated on day 0. FIG. 9B: Cell proliferation assay of BxPC3M1 cells treated with vemurafenib (10 μM). 100000 cells plated on day 0. FIG. 9C: Cell proliferation assay of Panc1 cells treated with vemurafenib (10 μM). 100000 cells plated on day 0. FIG. 9D: Cell proliferation assay of MiaPaca2 cells treated with vemurafenib (10 μM). 100000 cells plated on day 0. FIG. 9E: Mass spectrometry: PHGDH protein expression in pancreatic cancer cells treated with DMSO or vemurafenib (10 μM) (n=3). FIG. 9F: Mass spectrometry: PSAT1 protein expression in pancreatic cancer cells treated with DMSO or vemurafenib (10 μM) (n=3). FIG. 9G: Mass spectrometry: PSPH protein expression in pancreatic cancer cells treated with DMSO or vemurafenib (10 μM) (n=3). FIG. 9H: Mass spectrometry: SARS protein expression in pancreatic cancer cells treated with DMSO or vemurafenib (10 μM) (n=3).
Next, we tested the effect of vemurafenib treatment on pancreatic cancer cell proliferation. All 4 of the cell lines (BxPC3M1, BxPC3, Panc1, and MiaPaca2) tested express WT BRAF. […]

[2] = system: SK-MEL-28VR1 vs SK-MEL-28 cells; details: vemurafenib treatment, SK-MEL-28VR1 compared to parental SK-MEL-28
SK-MEL-28 cells [3] = assay: Colony formation assay; format: cell-based; details: Homo sapiens, parental cell line, FIG. 4B, read-out: IC50 of vemurafenib, colony formation
Protocol: (§1) For colony formation assays, 400 cells per well were seeded into 24-well plates on day 0. Cells were treated with DMSO or gemcitabine at various doses on day 1 for 24 hours. Gemcitabine was washed out on day 2, vemurafenib, dabrafenib, and methotrexate was added. On day 4, drugs added on day 2 was washed out. Cells were allowed to grow for a subsequent 7 days before being fixed (10% methanol+10% acetic acid) and stained with crystal violet (0.4% in 20% ethanol) for quantitation as previously described.
All proteomic trend plots were constructed using the Evol Science suite (ES). Volcano plotting serves to visually separate data points in two axes by both their expression ratio and their statistical significance. This enables a simple method of determining the most significant, differentially expressed proteins within a given comparison. For each protein, replicate values are gathered from each experiment to be compared to create two distributions of values. Student's T-Test of identical mean is used between the two independent samples of values to compare the distributions and generate a p-value of statistical significance. The −log 10 of the p-value is then taken to provide the Y coordinate, in graphical view. The X coordinate, Ratio, is given by the log 10 of the average of replicate ratio values for a given experiment. […]

SK-MEL-28VR1 cells [4] = assay: Colony formation assay; format: cell-based, human; details: for cell death with serine depletion: glucose, and glycine depleted media, not with complete media
Protocol: as §1
(§2) All proteomic trend plots were constructed using the Evol Science suite (ES). Volcano plotting serves to visually separate data points in two axes by both their expression ratio and their statistical significance. This enables a simple method of determining the most significant, differentially expressed proteins within a given comparison. For each protein, replicate values are gathered from each experiment to be compared to create two distributions of values. Student's T-Test of identical mean is used between the two independent samples of values to compare the distributions and generate a p-value of statistical significance. The −log 10 of the p-value is then taken to provide the Y coordinate, in graphical view. The X coordinate, Ratio, is given by the log 10 of the average of replicate ratio values for a given experiment. Combination Index calculations, Fa-CI plots, and isobolograms were constructed using the Compusyn software program using the Chou-Tulalay method. All plots representing colony formation assays were constructed using the Prism7 software (Graphpad.com). Two-way Anova tests were used to calculate p values.

BxPC3M1 cells = assay: Colony formation assay; format: cell-based, human; details: vemurafenib 5 μM, glucose, and glycine depleted media, not with complete media
Protocol: as §1, §2

[5] = system: pancreatic cancer cells (BxPC3M1, BxPC3, Panc1, MiaPaca2); format: cell-based; details: vemurafenib 10 μM versus DMSO, all 4 cell lines, n=3
SK-MEL-28VR1 cells [6] = assay: Mass spectrometry, FAM129B protein abundance; format: cell-based, human; details: FIG. 5A, n=3
Protocol: (§3) FIG. 5A and FIG. 5B illustrate a characterization of SK-MEL-28VR1 cells. FIG. 5A: Unbiased Mass spectrometry: FAM129B protein abundance following differential treatments of SK-MEL-28 and SK-MEL-28VR1 cells (n=3). FIG. 5B: illustrates a characterization of SK-MEL-28VR1 cells. Western blot of PHGDH protein expression in differentially treated SK-MEL-28 and SK-MEL-28VR1 cells. Alpha tubulin used as loading control. 50 μg of protein loaded in each lane.
(§4) Samples were dried down and re-dissolved in 2.5% ACN/0.1% formic acid for liquid chromatography-tandem mass spectrometry (LC-MS/MS) analysis carried out on a Q-Exactive HF (Thermo Fisher Scientific) coupled with a U3000 RSLCnano HPLC device (Thermo Fisher Scientific). 5 μL of sample were loaded onto a C18 trap column (PepMap100; 300-μm i.d.×5 mm, 5-μm particle size, 100 Å; Thermo Fisher Scientific) at a flow rate of 10 μL min^−1. […] The runs were analyzed using Progenesis-QI for Proteomics (Nonlinear dynamics). […] The peptide and protein quantification used a synthetic control peptide for normalization across the samples. […]

SK-MEL-28 cells [7] = assay: Mass spectrometry, FAM129B protein abundance; format: cell-based; details: parental SK-MEL-28 cells
Protocol: as §3, §4

CCCS(=O)(=O)Nc1ccc(F)c(C(=O)c2c[nH]c3ncc(-c4ccc(Cl)cc4)cc23)c1F [vemurafenib, Vemurafenib]
cell proliferation under vemurafenib treatment [1]: increased proliferation | Fold differential, ASNS ([2]; protein ASNS): 8 fold | Fold differential, CYP51A1 ([2]; protein CYP51A1): 8 fold | Fold differential, DUS2 ([2]; protein DUS2): 7 fold | Fold differential, FAM129B ([2]; protein FAM129B): 9 fold | Fold differential, KRT19 ([2]; protein KRT19): 5 fold | Fold differential, LARS2 ([2]; protein LARS2): 6 fold | Fold differential, MPHOSPH6 ([2]; protein MPHOSPH6): 9 fold | Fold differential, MRPL13 ([2]; protein MRPL13): 2 fold | Fold differential, PDLIM7 ([2]; protein PDLIM7): 9 fold | Fold differential, PHGDH ([2]; protein PHGDH): 2 fold | Fold differential, PPP1R7 ([2]; protein PPP1R7): 8 fold | Fold differential, PSAT1 ([2]; protein PSAT1): 8 fold | Fold differential, PSPH ([2]; protein PSPH): 5 fold | Fold differential, RUVBL1 ([2]; protein RUVBL1): 3 fold | Fold differential, S100A11 ([2]; protein S100A11): 8 fold | Fold differential, SARS2 ([2]; protein SARS2): 4 fold | Fold differential, SARS ([2]; protein SARS): 6 fold | Fold differential, SBDS ([2]; protein SBDS): 10 fold | Fold differential, SPATA20 ([2]; protein SPATA20): 12 fold | Fold differential, TXNDC17 ([2]; protein TXNDC17): 2 fold | pIC50 (SK-MEL-28 cells [3]): ~6.00 | pIC50 (SK-MEL-28VR1 cells [4]; Homo sapiens, data not shown, read-out: IC50 of vemurafenib, colony formation): ~4.52 | cell death with serine depletion (SK-MEL-28VR1 cells [4]; vemurafenib 2.5 μM): > 50% | cell death with serine depletion (SK-MEL-28VR1 cells [4]; vemurafenib 5 μM): > 50% | cell death with serine depleted media (BxPC3M1 cells): > 50% | PHGDH, PSAT1, PSPH, and SARS protein abundance [5]: increased | Cytoplasmic FAM129B abundance increase, vemurafenib compared to vehicle treatment (SK-MEL-28VR1 cells [6]): ~6 fold | FAM129B abundance in response to vemurafenib treatments (SK-MEL-28 cells [7]): decreased
